Results: paper PMC3669024, “Pharmacological Characterization of a 5-HT1-Type Serotonin Receptor in the Red Flour Beetle, Tribolium castaneum” (PLoS ONE, 2013)
Where a name gives a salt, the structure may show the parent alone. Read-outs that look alike come from different tables or passages of the source.

Experiments:
Type in all cases: cell-based
Trica5-HT1 [1] = biological target: T1, Trica5-HT1 (Tribolium castaneum, UniProt R9ULB8); assay: Aequorin-luminescence assay in CHO-PAM28 cells (no Gα16), Ca2+ signaling of Trica5-HT1; settings: CHO-PAM28 cells transfected with the receptor
T1 sequence (R9ULB8 entry or part of it): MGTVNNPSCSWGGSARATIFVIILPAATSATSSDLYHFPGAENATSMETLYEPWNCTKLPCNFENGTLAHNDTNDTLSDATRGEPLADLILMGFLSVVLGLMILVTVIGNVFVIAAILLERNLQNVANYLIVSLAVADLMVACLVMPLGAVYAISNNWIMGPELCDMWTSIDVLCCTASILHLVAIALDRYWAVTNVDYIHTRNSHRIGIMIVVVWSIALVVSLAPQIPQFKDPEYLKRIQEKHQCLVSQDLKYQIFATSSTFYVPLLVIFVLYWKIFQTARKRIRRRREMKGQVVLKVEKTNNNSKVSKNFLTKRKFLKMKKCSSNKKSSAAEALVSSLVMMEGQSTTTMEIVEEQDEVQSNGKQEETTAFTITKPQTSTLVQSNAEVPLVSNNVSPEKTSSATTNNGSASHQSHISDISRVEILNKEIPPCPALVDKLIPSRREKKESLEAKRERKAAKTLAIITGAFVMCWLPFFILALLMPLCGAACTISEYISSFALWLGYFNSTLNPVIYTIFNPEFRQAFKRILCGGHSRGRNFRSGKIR
Procedure: (§1) General binding studies were performed in Chinese hamster ovary (CHO) WTA11 cells stably coexpressing apoaequorin and the promiscuous Gα16. This allowed us to measure the pharmacology independent of the downstream signaling. CHO-PAM28 cells stably expressing apoaequorin, but not the promiscuous Gα16, and human embryonic kidney cells (HEK) 293 cells were used to measure downstream signaling via Ca^2+ and cAMP, respectively. CHO cell lines were provided by Prof. Marc Parmentier (University of Brussels, Belgium) and Dr. Michel Detheux (Euroscreen S.A., Belgium). HEK293 cells were a gift from Prof. Arnd Baumann (Research Centre Jülich, Germany.
Cells were cultured in vitro as monolayers at 37°C, 5% CO2 and high relative humidity, and subcultivated twice a week. […] HEK293 cells were cotransfected with receptor construct (4 µg) and CRE-luciferase construct (2 µg), consisting of the open reading frame of the reporter gene, luciferase, downstream of a multimerized cAMP-response-element (CRE6x), [39]. […]
The transfected CHO cells were detached with phosphate buffered saline (PBS) containing 0.2% EDTA and collected in DMEM/F-12 (without phenol red, with L-glutamine and 10 mM HEPES) (Gibco). The amount of viable cells was determined using the NucleoCounter NC-100+TM (Chemometic). […] Receptor activity was measured as the light emission after adding 50 µl of the cell suspension. […]

Trica5-HT1 [2] = biological target: T1, Trica5-HT1; assay: CRE-luciferase reporter-gene assay, NKH-477 stimulated cAMP in HEK293 cells expressing Trica5-HT1; settings: for IC50: NKH-477 stimulated cAMP
Procedure: as §1
(§2) Cells were cultured in vitro as monolayers at 37°C, 5% CO2 and high relative humidity, and subcultivated twice a week. For transfection of CHO cells, 2.5 ml Opti-MEM®I (Invitrogen), 5 µg plasmid DNA and 12.5 µl Plus^TMreagent (Invitrogen) were mixed, stored at room temperature for 5 min and next repleted with 30 µl Lipofectamine™LTX (Invitrogen). After 30 min incubation at room temperature, this transfection mixture was added dropwise to the cells together with 5 ml medium. HEK293 cells were cotransfected with receptor construct (4 µg) and CRE-luciferase construct (2 µg), consisting of the open reading frame of the reporter gene, luciferase, downstream of a multimerized cAMP-response-element (CRE6x), [39]. All transfections were performed in T75 flasks with a confluency of about 60 percent. Cells were grown overnight, after which 15 ml of medium was added for an additional overnight incubation period.
Cotransfected HEK293 cells were detached and the amount of viable cells was determined as described for CHO cells. Cells were pelleted for 4 min at 800 rpm at room temperature and resuspended in DMEM/F12 medium (without phenol red, with L-glutamine and 10 mM HEPES) containing 200 µM 3-isobutyl-1-methylxanthine (IBMX, Sigma-Aldrich) to a concentration of 10^6 cells/ml. The pharmacological ligands were dissolved in DMEM/F12 medium without phenol red containing 200 µM IBMX. The water-soluble forskolin analog NKH-477 was added to a concentration of 20 µM to measure Trica5-ht1-mediated effects on cellular cAMP signaling. In each well of a 96-well plate, 50 µl of ligand suspension and 50 µl of cell suspension were dispensed. […] Light emission was measured for 5 s per well using a Mithras LB940 (Berthold Technologies). […] Data were analyzed as described for CHO cells.
CHO-PAM28 and HEK293 cells were used to determine the downstream signaling pathway of Trica5-HT1. […] Relative high variation in the data can be explained by assay based variation since cells were not counted when dispensed. […]

Trica5-HT1 [3] = biological target: T1, Trica5-HT1; assay: Aequorin-luminescence assay, agonist activation of Trica5-HT1 in CHO-WTA11 cells (apoaequorin + Gα16)
Procedure: as §1, §2
The transfected CHO cells were detached with phosphate buffered saline (PBS) containing 0.2% EDTA and collected in DMEM/F-12 (without phenol red, with L-glutamine and 10 mM HEPES) (Gibco). The amount of viable cells was determined using the NucleoCounter NC-100+TM (Chemometic). Cells were pelleted for 4 min at 800 rpm at room temperature and resuspended in BSA-medium (DMEM/F12 without phenol red, with L-glutamine and 10 mM HEPES, supplemented with 0.1% bovine serum albumin) to a concentration of 5×10^6 cells/ml. Coelenterazine H (Invitrogen) was added to a final concentration of 5 µM, and cells were gently shaken for 4 h at room temperature in the dark. After a 10-fold dilution in BSA-medium, cells were incubated another 30 min. The pharmacological ligands were dissolved in BSA-medium. For agonists, 50 µl containing the final ligand concentration was added to appropriate wells of a 96-well plate. For antagonists, 25 µl of the antagonist solution was supplemented with 25 µl of a 5-HT solution. Receptor activity was measured as the light emission after adding 50 µl of the cell suspension. Light emission was measured for 30 s using a Mithras LB940 (Berthold Technologies). Subsequently, cells were lysed with Triton X-100 (0.1% in BSA-medium) and light emission was recorded for another 8 s. BSA-medium was used as a negative control. Light emission from each well was calculated relative to the total response (ligand+Triton X-100) using the output file of Mikrowin2000 software (Mikrotek). Further analysis was done in Graphpad Prism 5.
In order to pharmacologically characterize Trica5-HT1, we used CHO-WTA11 cells stably expressing apoaequorin and the promiscuous Gα16 subunit. […] The dose-response relationship for 5-HT and these synthetic agonists was examined at concentrations ranging from 1 pM to 1 mM (Figure 3B). […] Since the efficacy achieved by any agonist depends on the number of receptors expressed, we measured a dose-response curve for 5-HT in every experiment and normalized all agonist effects to the maximum 5-HT response, set at 100% (Figure 3B).

NCCc1c[nH]c2ccc(O)cc12 [5-HT, 5-HT hydrochloride]
effect on Ca2+ signaling (Trica5-HT1 [1]): No effect | concentration at which maximal attenuation of cAMP synthesis was attained (Trica5-HT1 [2]): ≥ 10 µM | Maximal attenuation of cAMP synthesis (Trica5-HT1 [2]; 5-HT ≥10 µM): ~40% | IC50 (Trica5-HT1 [2]; given as negative log value, read-out: logIC50 (mean ± SEM) (converted)): 83.2 nM | IC50 (Trica5-HT1 [2]; read-out: Half maximal reduction of cAMP): 82.7 nM | concentration at which the maximal response was attained (Trica5-HT1 [3]; CHO-WTA11 cells): ≥ 10 µM | response at 100 µM agonist (Trica5-HT1 [3]; CHO-WTA11 cells, 100 µM, Figure 3A): Significant responses | EC50 (Trica5-HT1 [3]; EC50, receptor activation in CHO-WTA11 cells): 95 nM | EC50 (Trica5-HT1 [3]; Half-maximal activation (EC50), CHO-WTA11 cells): 95.2 nM | EC50 (Trica5-HT1 [3]; logEC50 (mean ± SEM), receptor activation in CHO-WTA11 cells, given as negative log values): 97.7 nM
